From patent US8865237B2, “Method of preparing dialysed extract of fenugreek seeds which induces hypoglycemia, mediated, in part, via stimulation of insulin signaling pathway” (Department of Biotechnology, priority 2006, dated 2014)

Columns and labels:
PKCλ in HepG2 cells = test: Confocal microscopy analysis of PKC translocation in HepG2 cells; assay type: cell-based, human; settings: HepG2, pretreatment before extract
Procedure: Confocal microscopy analysis of PKC translocation in HepG2 cells. HepG2 cells were serum starved for 3 h and were treated with either 100 nmol/l insulin for 10 min or 25 mg/l FSE for 30 min. In some wells, cells were pretreated with pharmacological inhibitors before treating with extract. Cells were washed quickly with cold PBS and fixed by treating with 3% paraformaldehyde in PBS Ph 7.4, for 15 min at room temperature, rinsed with PBS three times and quenched with 1% glycine for 10 min. Cells were permeabilised with 0.025% saponin in PBS, for 5 min, blocked with PBS containing 5% FBS for 1 h at room temperature, incubated with anti-PKC antibody for overnight at 4° C. in PBS oontaining 2.5% FBS. Cells were washed four times for 5 min each with PBS. Cells were then incubated with a flourescein isothoicyanate conjugated anti-rabbit antibody for additional 1 h, washed again and mounted using vectashield (Vector Laboratories, Burlingame, Calif.) for visualization by confocal microscopy. Rabbit IgG was used as an isotype control.
Effect of FSE on PKCλ translocation in 3T3-L1 and RepG2 cells. […] To investigate the link between FSE induced 1R phosphorylation and GLUT4 translocation, translocation of PKCλ was studied in both 3T3-L1 and HepG2. […] Wortmannin and bis-1 decreased the fluorescence associated with the membrane.

[1] = test system: CHO clones expressing insulin receptor and GLUT4eGFP; test: Glucose transport (2-DG uptake) in GLUT4 overexpressing CHO cells; assay type: cell-based; settings: wortmannin 20 min or BIS-1 100 nmol/l 1 h, then extract 30 min
Procedure: Cell Culture In Vitro Studies. […] For preadipocyte differentiation 80% confluent preadipocytes were cultured for 2 days in differentiation medium (DMEM supplemented with 1 μmol/l insulin, 0.5 mmol/l IBMX, 0.25 μmol/l DEX containing 10% FBS) and for 2 days in DMEM supplemented with 1 μmol/l insulin and 10% FBS. Thereafter the cells were grown for an additional 4-5 days in DMEM containing 10% FBS. Media was changed on every second day without any additional supplements. CHO clones expressing insulin receptor and GLUT4eGFP protein were grown in media supplemented with hygromycin additionally (100 μg/ml). Penicillin (100 units/ml) and streptomycin ([…]) were added routinely to cultures and all cell lines were cultivated at 37° C. in a 5% CO2 enriched humidified atmosphere.
Effect of FSE on glucose transport. […] Protein was estimated and the radioactivity incorporated into cells was quantified by scintillation counting (Packard, Albertville, Minn.). Nonspecific uptake, measured in the presence of 10 μmol/l cytochalasin B, was subtracted from all values. […]
(§1) Effect of FSE on glucose transport in GLUT4 overexpressing cells. […] CHO cells overexpressing insulin receptor as well as GLUT4 were incubated in the presence of various concentrations of FSE for 30 min and glucose transport was measured by determining the rates 2DG uptake. […]

[2] = test system: PKCλ in 3T3-L1 adipocytes; test: PKCλ in plasma membrane fraction of 3T3-L1 adipocytes (immunoblotting); assay type: cell-based; settings: wortmannin 100 nmol/l 20 min, BIS-1 100 nmol/l 1 h
Procedure: Isolation of plasma membrane fraction and immunoblotting detection of PKCλ and GLUT4 in 3T3-L1 adipocytes. Differentiated 3T3-L1 cells in 100 mm petri dishes were serum starved for 3 h in DMEM supplemented with 0.1% BSA and then treated with 100 nmol/l insulin or […] for 10 min and 30 min respectively. In some cases cells were pre-treated with 100 nmol/l wortmannin, for 20 min or 100 nmol/l BIS-1 for 1 h followed by treatment with extract t for additional 30 min. Plasma membrane fractionation of 3 T3-L1 adipocytes was performed as previously described (28) with slight modifications that 1 mmol/l PMSF, 1 mmol/l Na3VO4 and a cocktail of protease inhibitors were added to the lysis buffers. Equal protein was diluted with 5× Laemmli buffer, electrophoresied by 10% SDS-PAGE and transferred on to a nitrocellulose membrane. The membrane was probed with anti-nPKCλ or anti-GLUT4 antibody.
Effect of FSE on PKCλ translocation in 3T3-L1 and RepG2 cells. […] To investigate the link between FSE induced 1R phosphorylation and GLUT4 translocation, translocation of PKCλ was studied in both 3T3-L1 and HepG2. […] In unstimulated HepG2 cells the immunofluorescence was minimum as visualized by confocal microscopy. […] Wortmannin and bis-1 decreased the fluorescence associated with the membrane.

[3] = test system: GLUT4 in 3T3-L1 adipocytes; test: GLUT4 translocation in 3T3-L1 cells (mycGLUT4 ELISA, membrane fractionation); assay type: cell-based
Procedure: GLUT4 Translocation Assay in GLUT4 Overexpressing Cell lines. CHO clones expressing insulin receptor and GLUT4eGFP protein were plated on a microscopic chamber slide (ICN, Costa Mesa, Calif.), serum starved in DMEM containing 1 mg/ml BSA for 3 h, followed by treatment with 100 nmol/l insulin or 25 mg/l FSE for 10 and 30 min respectively. Treatment was terminated by keeping the slide on ice and washing with cold PBS. Cells were fixed with 3% para-formaldehyde (PF) in PBS for 15 min at room temperature. GLUT4 translocation was investigated by using LSM confocal microscope (Zeiss LSM 510, Heidelberg, Germany). 3T3-L1 expressing mycGLUT4 were grown in 96 well plated then differentiated to adipocytes, serum starved for 3 h and incubated with insulin or FSE for 10 and 30 min respectively. To examine the specificity of the signaling pathway the cells were pretreated with wortmannin (100 nmol/l) or BIS-1 (100 nmol/l) for 20 min and 1 h respectively. […] The optical absorbance of the supernatant was measured at 414 nm. […]
as §1

[4] = test system: insulin receptor, IRS-1 and p85 subunit of PI3-Kinase in HepG2 cells; test: Phosphorylation of insulin signaling proteins in HepG2 cells (western blot); assay type: cell-based, human; settings: HepG2, 25 mg/l FSE or 100 nmol/l insulin
Procedure: (§2) Effect of FSE on insulin signaling proteins in 3T3-L1 Adipocytes and HepG2 cell lines. Differentiated 3T3-L1 adipocytes or HepG2 cell were serum starved in F-12K medium containing 7 mM glucose and 0.1% BSA for 16 h followed by changing medium to DMEM containing 25 mmol/l glucose and incubated for 1 h. Subsequently the cells were treated with 100 nmol/l insulin or 25 mg/l FSE for 10 min and 30 min respectively. Untreated cells were incubated with PBS. Cells were washed with cold PBS, removed from the plates using a rubber policeman, lysed in lysis buffer (50 mmol/l Tris-HCl pH7.5, 150 mmol/l NaCl, 1% NP-40, 2 mmol/l EGTA, 2 mmol/l Na3VO4, 100 mmol/l Na4P2O7, […], 1 mmol/l PMSF and protease inhibitor cocktail) on ice for 30 min, passed through 261/2G syringe 20 times and finally centrifuged at 15,000×g for 10 min at 4° C. Equal amounts of protein (100 μg) were diluted in 5× Laemmli reducing buffer (250 mmol/l Tris-HCl p 6.8, 10% SDS, 0.5% bromophenol blue, 50% glycerol, 12.5% β-mercaptoethanol) boiled for 5 min at 100° C. and resolved by 8% SDS-PAGE by running proteins below 43 kDa out of the gel. The proteins form the gel were transferred to nitrocellulose membrane using transfer buffer (CAPS buffer pH 10.7 containing 10% methanol) by applying 150 mA current for 2 h. […]

liver glucokinase (GK) = test: Liver glucokinase assay in STZ-BALB/cJ mice; assay type: in vivo
Procedure: BALB/cJ or Swiss albino mice (male, 8-10 week old) were housed under environmentally controlled conditions (22+/−2° C.) with a 12 h light/dark cycle and had free access to standard rodent pellet food and water. Animals were given 5 daily intraperitoneal (IP) injection of freshly prepared STZ (40 mg/kg in 0.5 mol/l sodium citrate pH 4.5) or AXN (50 mg/kg in 0.9% sodium chloride). Ten hours before the experiments, animals were moved to new cages in which no food was available. AXN injected mice that achieved a glucose level of 200-300 mg/dl and STZ injected mice that achieved a glucose level of 275-400 mg/dl were used as hyperglycemic models in this study. Mice were divided into, diabetic control group, insulin group and FSE group (n=5 in each group). Mice were injected (IP) with vehicle (PBS), insulin (1.5 U/kg) or extract (1, 5 or 15 mg/kg). Blood was collected before injection (0 min), 90 and 240 min after the treatments and serum blood glucose levels were estimated. In some experiments STZ-BALB/cJ mice were sacrificed 90 min after the treatments, and the livers were harvested for analysis. In another set of experiments, AXN-induced Swiss albino diabetic mice were injected with PBS or extract for 5 days (n=5). Blood was collected on day 0, 5, 10 and 15 and body weight was monitored on same day. Acidified insulin from bovine pancreas diluted in PBS was used as a positive test compound in all the experiments. All animal experiments have been performed following the requirement of the committee for the Purpose of Control and Supervision of Experiments on Animals (CPCSEA), Government of India, and after permission of the Institute's Animal Care and Use Committee (IACUC).
Glucokinase assay. Liver samples were homogenized in three volumes of ice cold buffer containing 50 mmol/l Tris-HCl, pH 7.4, 300 mmol/l sucrose, 100 mmol/l KCl, 1 mmol/l EDTA 2.5 mmol/1 mercaptoethanol and centrifuged at 12,000×g for 15 min (12). […] GK activity was calculated as the difference between the glucose phosphorylation capacity at 100 and 0.5 mmol/l glucose. […]

[5] = test system: insulin receptor, IRS-1 and p85 subunit of PI3-Kinase in 3T3-L1 adipocytes; test: Phosphorylation of insulin signaling proteins in 3T3-L1 adipocytes (western blot); assay type: cell-based; settings: 3T3-L1, 25 mg/l FSE or 100 nmol/l insulin
Procedure: as §2

Compound | effect of inhibitors on fluorescence associated with the membrane (PKCλ in HepG2 cells) | effect of inhibitor pretreatment on FSE stimulated glucose uptake [1] | effect of inhibitor pretreatment on translocation of PKCλ induced by FSE [2] | effect of inhibitor pretreatment on FSE induced GLUT4 translocation ([3]; wortmannin 100 nmol/l 20 min, BIS-1 100 nmol/l 1 h) | IR-α phosphorylation [4] | enhancement of GK activity compared to diabetic control (liver glucokinase (GK); STZ-diabetic BALB/cJ mice, 90 min, FSE 15 mg/kg) [%] | activation of GK compared to control treated animals (liver glucokinase (GK); diabetic animals, 90 min treatment) [fold] | GK activity (liver glucokinase (GK); liver removed 90 min after treatment, insulin 1.5 U/kg or FSE 15 mg/kg) [nmol/min/mg] | IR-α phosphorylation [5] | enhancement of glucose uptake ([3]; 100 nmol/l insulin, under similar experimental conditions) [fold]
CN(C)CCCn1cc(C2=C(c3c[nH]c4ccccc34)C(=O)NC2=O)c2ccccc21 [BIS-1] | decreased | abrogated | inhibited | masked |  |  |  |  |  | 
insulin |  |  |  |  | did not exhibit | 460 | 4.5 | 690.0 | did not exhibit | 2.5
